Test results taken from article PMC9981747, “A covalent BTK ternary complex compatible with targeted protein degradation” (Nature Communications, 2023).
Several values for one entry are separate records, joined by “and”; a condition that tells them apart may be missing. Identical values can stand only once. Like-named read-outs stand apart in the source and are kept apart here.

Tests used:
BTK^FL [1] = molecular target: T1, BTK^FL (Homo sapiens, UniProt Q06187+Q13490); test: Expi293 dose-dependent BTK degradation (western blot), BTK^FL co-transfected with cIAP1^FL; assay type: cell-based; conditions: for DC50: Expi293, cIAP1^FL co-transfected, ~18 h, 3 experiments, read-out: DC50 for degradation of BTK^FL (WT)
T1 construct: we used a full-length BTK (aa1-659) with a C terminal Tobacco Etch Virus protease (TEV) site; expressed in transfected cells; host or cells: Expi293 (HEK293)
Experimental: (§1) Gibco Expi293 cell line Transfection Kit (Cat.# A14524) was cultured according to the manufacturers conditions. Cells were grown at 37 °C with 5% CO2 to 4 × 10^6 cells/mL using an orbital shaker set to 95 RPM. Next cells were split to 2 × 10^6 cells/mL and transfected with plasmid DNA at a 1 µg/mL final concentration in Optimem (Gibco 31985070) using the Expifectamine 293 transfection reagent according to manufacturer’s conditions. After approximately 18 h, enhancers 1 and 2 (provided with kit). Viability was typically about 85%. When cIAP1^FL was transfected, it was detected via α-cIAP1 antibody there was typically some autoubiquitination detected, and thus often appeared as a laddered or smeared band via western blotting. When BTK^FL variants were transfected, they were detected using anti-BTK antibody (D3H5).
For dose-dependent degradation assays, cells were plated in a 24-well format and placed on a separate orbital shaker set to 115 RPM. Each well was treated with prescribed compound concentrations in the same manner as with THP-1 cells, with the exception of using Expifectamine 293 growth medium in place of RPMI 1640 complete media. After approximately 18 h post-treatment cells were harvested, centrifuged at 100 x g at 4 °C, washed twice with ice-cold PBS, and resuspended in RIPA buffer supplemented with a Roche protease inhibitor cocktail (Cat. #11873580001), and benzonase nuclease (Millipore-Sigma Cat# 70664). Each sample was incubated on ice for 30 min with periodic vortexing and centrifuged at 15 Kxg for 20 min. Clarified lysate was harvested and quantified using a Pierce BCA Assay Kit (Cat. #23225), and 20 µg of the sample was loaded into a 4–15% Criterion TGX gel (Bio-Rad, 5678085) and transferred to a nitrocellulose membrane (Life Technologies Cat. #IB23001) using an iBlot 2 (Life Technologies Cat. #IB21001). Proteins were detected using an iBind system (Life Technologies SLF2020). For BTK^T474I and BTK^T474I/C481S we inferred ligand entry into cells via the autoubiquitination and dose-dependent degradation of cIAP1^FL,[58].
Dose-dependent Degradation was analyzed using ImageJ (NIH, version 1.50i). Densiometric analysis was performed, normalized to DMSO signal, and analyzed using GraphPad Prism (Version 9.0.0 (121)). Non-linear fit one-phase decay analysis was used to obtain DC50 values. When we observed a hook effect, some points were excluded as part of the fit. In Supplementary Fig. 7B the complete curve was fit using GraphPad Prism non-linear regression bell-shaped curve where X is the concentration. However, using this method we were unable to obtain stable values for our DC50. SEM error was plotted for each point. When determining statistically significant differences, we used a two-sided student’s unpaired T-Test.

BTK^FL [2] = molecular target: T1, BTK^FL; test: Expi293 time-dependent degradation of BTK^FL; assay type: cell-based; conditions: 5 µM; for BTK^FL (WT) blot signal normalized to time 0: replicates
Experimental: as §1
For covalent modification detection assays, the compound was added to Expi293 cells after enhancer treatment. At each timepoint 10 mL of cells were harvested, rapidly cooled to 4 °C in an ice bath, and centrifuged at 100 x g at 4 °C for 5 min. The pellet was washed twice with ice-cold PBS, snap-frozen in liquid nitrogen, and stored at −80 °C. Each pellet was resuspended in 0.1 mL ice-cold RIPA Buffer supplemented with 40 µM BCNC (to outcompete any remaining BCCov), protease inhibitor, and benzonase, and sonicated with 10 brief blasts at power 20. Lysate was centrifuged at 15 K x g for 20 min at 4 °C and prepared for western blotting as detailed above. When samples were evaluated for covalent adduct formation, a purification step was required. Briefly, the ~1 mL of clarified lysate was added to 9 mL of FLAG binding buffer (25 mM HEPES 7.5, 300 mM NaCl, 10% glycerol). These samples were incubated with 250 µL of anti-FLAG M2 affinity resin (Millipore-Sigma Cat. # A2220) for 3 h at 4 °C with gentle nutation. Samples were washed via gravity column filtration and eluted with 0.2 mg/ml FLAG Peptide (DYKDDDDK, CPC Scientific Peptide Company). Each sample was concentrated to 0.1 mg/mL using an Amicon Ultra-15 Centrifugal filter with a 50 kDa MWCO (Millipore-Sigma Cat. # UFC905024). Details on mass spectrometry analysis are below.

[3] = molecular target: T2, BTK^KD and cIAP1^BUCR1 ternary complex (Homo sapiens, UniProt Q06187+Q13490); test: Biolayer interferometry (BLI) ternary complex formation; assay type: binding
T2 construct: BTK^KD (aa384-659) were expressed and purified as previously described; cIAP1^BUCR1 (aa260-618), and BTK^KD (aa384-659) were expressed and purified as previously described; biotin / BAP (only when BTK^KD~BCCov was the sensor ligand); made in house; host or cells: BTK^KD: SF9 insect cells; cIAP1^BUCR1: E. coli BL21-DE3
Experimental: We performed biolayer interferometry (BLI) with an OctetRED384 system (Data Acquisition Version 9.0.0.49) as described previously. […] Ligands were loaded onto streptavidin biosensors (ForteBio, 18-5019) for 120 s, washed in Octet buffer for 200 s, quenched with 50 μM d-biotin (Invitrogen) for 120 s, and washed in Octet buffer for 500 s. […] Excess compound was desalted using a Zeba Spin Desalting Column (Cat. #89882). The preformed binary complex was then dipped into varying concentrations of analyte diluted in Octet buffer for 300 s to determine kon, followed by a wash for 500 s to determine koff. Binding kinetics were calculated and plotted using BiaEvaluation Software (version 4.1.1). Cooperativity (α) was determined by calculating the ratio of binary Kd to ternary complex Kd.

T1 sequence (Q06187 whole entry, the tested form may be a part): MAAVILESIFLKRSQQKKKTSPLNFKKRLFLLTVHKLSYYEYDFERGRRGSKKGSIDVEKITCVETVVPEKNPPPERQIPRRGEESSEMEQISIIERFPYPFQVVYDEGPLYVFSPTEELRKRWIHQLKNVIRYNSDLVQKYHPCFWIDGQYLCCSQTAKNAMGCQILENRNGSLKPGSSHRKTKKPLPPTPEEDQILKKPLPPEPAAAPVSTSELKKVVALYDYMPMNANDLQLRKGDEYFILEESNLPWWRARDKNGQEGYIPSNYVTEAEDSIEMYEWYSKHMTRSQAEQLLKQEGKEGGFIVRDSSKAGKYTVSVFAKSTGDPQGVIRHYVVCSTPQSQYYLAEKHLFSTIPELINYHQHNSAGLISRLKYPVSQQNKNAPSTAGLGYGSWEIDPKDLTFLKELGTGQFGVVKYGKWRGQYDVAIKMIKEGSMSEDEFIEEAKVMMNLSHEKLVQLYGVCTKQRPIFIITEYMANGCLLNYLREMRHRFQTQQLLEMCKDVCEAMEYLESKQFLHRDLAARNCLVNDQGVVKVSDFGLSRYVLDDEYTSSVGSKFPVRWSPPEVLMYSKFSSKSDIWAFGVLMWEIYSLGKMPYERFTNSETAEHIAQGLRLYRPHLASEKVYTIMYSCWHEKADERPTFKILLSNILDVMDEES
T1 sequence (Q13490 whole entry, the tested form may be a part): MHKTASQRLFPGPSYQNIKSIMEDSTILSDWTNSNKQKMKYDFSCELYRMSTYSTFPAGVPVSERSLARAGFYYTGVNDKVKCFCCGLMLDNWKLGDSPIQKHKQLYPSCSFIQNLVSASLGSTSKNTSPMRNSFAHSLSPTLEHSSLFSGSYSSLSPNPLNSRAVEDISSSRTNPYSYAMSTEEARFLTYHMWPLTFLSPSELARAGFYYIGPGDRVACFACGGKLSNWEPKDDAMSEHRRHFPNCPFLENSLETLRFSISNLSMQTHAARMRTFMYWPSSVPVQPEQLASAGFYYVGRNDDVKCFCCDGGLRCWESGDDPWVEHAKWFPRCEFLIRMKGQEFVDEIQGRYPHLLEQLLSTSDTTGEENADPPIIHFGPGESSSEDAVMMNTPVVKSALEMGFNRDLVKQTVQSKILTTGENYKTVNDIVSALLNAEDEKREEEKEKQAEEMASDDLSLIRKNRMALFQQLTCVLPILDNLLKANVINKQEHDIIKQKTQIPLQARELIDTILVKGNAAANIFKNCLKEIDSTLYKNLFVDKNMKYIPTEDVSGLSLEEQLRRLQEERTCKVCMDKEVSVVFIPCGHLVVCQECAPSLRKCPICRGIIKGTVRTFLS
T2 sequence (Q06187 384-659): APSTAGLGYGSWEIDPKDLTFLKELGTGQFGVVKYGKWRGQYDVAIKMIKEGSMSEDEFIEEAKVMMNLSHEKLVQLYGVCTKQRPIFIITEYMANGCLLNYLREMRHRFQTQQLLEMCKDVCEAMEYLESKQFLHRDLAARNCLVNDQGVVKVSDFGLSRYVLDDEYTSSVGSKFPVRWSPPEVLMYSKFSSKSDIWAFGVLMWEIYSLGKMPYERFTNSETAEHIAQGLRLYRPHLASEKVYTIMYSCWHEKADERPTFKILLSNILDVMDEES
T2 sequence (Q13490 260-618): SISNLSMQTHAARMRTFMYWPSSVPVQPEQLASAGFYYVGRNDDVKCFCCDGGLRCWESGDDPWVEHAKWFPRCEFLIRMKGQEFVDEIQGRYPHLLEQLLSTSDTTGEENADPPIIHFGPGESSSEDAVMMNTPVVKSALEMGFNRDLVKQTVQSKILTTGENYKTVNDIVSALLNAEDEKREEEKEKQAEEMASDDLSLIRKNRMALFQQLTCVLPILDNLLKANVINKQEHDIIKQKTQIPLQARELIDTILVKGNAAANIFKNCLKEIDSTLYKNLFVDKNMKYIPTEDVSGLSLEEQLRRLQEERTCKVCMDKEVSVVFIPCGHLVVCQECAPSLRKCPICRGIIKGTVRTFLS

SMILES	WT BTK blot signal normalized to DMSO (BTK^FL [1]; 0.004883 uM, replicates)	WT BTK blot signal normalized to DMSO (BTK^FL [1]; 0.009766 uM, replicates)	WT BTK blot signal normalized to DMSO (BTK^FL [1]; 0.019531 uM, replicates)	WT BTK blot signal normalized to DMSO (BTK^FL [1]; 0.039063 uM, replicates)	WT BTK blot signal normalized to DMSO (BTK^FL [1]; 0.078125 uM, replicates)	WT BTK blot signal normalized to DMSO (BTK^FL [1]; 0.15625 uM, replicates)	WT BTK blot signal normalized to DMSO (BTK^FL [1]; 0.3125 uM, replicates)	WT BTK blot signal normalized to DMSO (BTK^FL [1]; 0.625 uM, replicates)	WT BTK blot signal normalized to DMSO (BTK^FL [1]; 1.25 uM, replicates)	WT BTK blot signal normalized to DMSO (BTK^FL [1]; 2.5 uM, replicates)	WT BTK blot signal normalized to DMSO (BTK^FL [1]; 5 uM, replicates)	DC50 (BTK^FL [1]) [nM]	BTK^FL (WT) blot signal normalized to time 0 (BTK^FL [2]; 0.5 h)	BTK^FL (WT) blot signal normalized to time 0 (BTK^FL [2]; 1 h)	BTK^FL (WT) blot signal normalized to time 0 (BTK^FL [2]; 2 h)	BTK^FL (WT) blot signal normalized to time 0 (BTK^FL [2]; 3.5 h)	BTK^FL (WT) blot signal normalized to time 0 (BTK^FL [2]; 5.5 h)	BTK^FL (WT) blot signal normalized to time 0 (BTK^FL [2]; 7 h)	BTK^FL (WT) blot signal normalized to time 0 (BTK^FL [2]; 17 h)	other results
CNC(C)C(=O)NC(C(=O)N1CC(NC(=O)COCCN2CCN(CCCC(=O)N3CCCC(n4nc(-c5ccc(Oc6ccccc6)cc5)c5c(N)ncnc54)C3)CC2)CC1C(=O)NC1CCCc2ccccc21)C1CCCCC1 (stereo not shown) [BCNC]	0.92 and 1.00 (2×)	0.74 and 1.02 and 0.84	0.72 and 0.83 and 0.75	0.52 and 0.87 and 0.78	0.38 and 0.65 and 0.51	0.29 and 0.54 and 0.30	0.25 and 0.36 and 0.30	0.21 and 0.32 and 0.16	0.2 and 0.35 and 0.15	0.24 and 0.40 and 0.29	0.68 and 0.77 and 0.51	149 ± 70	0.49 and 0.76 and 0.55	0.28 and 0.42 and 0.35	0.16 and 0.20 and 0.21	0.06 (2×) and 0.10	0.056 and 0.10 and 0.08	0.00935 and 0.01 and 0.09	0.00 and 0.02 (2×)	Kd ([3]; [cIAP1^BUCR1-BCNC] binary complex binding BTK^KD, read-out: Kd, ternary complex): 49.8 nM
CNC(C)C(=O)NC(C(=O)N1CC(NC(=O)COCCN2CCN(CC=CC(=O)N3CCCC(n4nc(-c5ccc(Oc6ccccc6)cc5)c5c(N)ncnc54)C3)CC2)CC1C(=O)NC1CCCc2ccccc21)C1CCCCC1 (stereo not shown) [BCCov]	0.92 and 0.99 and 1.00	0.74 and 1.02 and 0.84	0.72 and 0.83 and 0.75	0.52 and 0.87 and 0.78	0.38 and 0.65 and 0.51	0.29 and 0.54 and 0.30	0.25 and 0.36 and 0.30	0.21 and 0.32 and 0.16	0.20 and 0.35 and 0.15	0.24 and 0.40 and 0.29	0.68 and 0.77 and 0.51	57.2 ± 28	0.46 and 0.65 and 0.56	0.26 and 0.42 and 0.40	0.14 and 0.25 and 0.20	0.0842 and 0.15 and 0.20	0.12 and 0.14 and 0.13	0.07 and 0.02 and 0.03	0.00 (2×) and 0.02	BTK level normalized to untreated BTK^FL, Figure 1B Lane 2 (BTK^FL [1]; 5 µM, BTK^FL without cIAP1^FL, replicates): 1.30 and 0.97 and 0.91; BTK degradation without cIAP1^FL (BTK^FL [1]; BTK^FL transfected without cIAP1^FL (Fig. 1B, lane 2)): no observable ligand-induced BTK degradation; hook effect in degradation profile (BTK^FL [1]; wt BTK^FL, Expi293): partial hook effect; time at which degradation reaches a plateau (BTK^FL [2]; BTK^FL with cIAP1^FL): ≤ 7 h; time at which degradation starts (BTK^FL [2]; BTK^FL with cIAP1^FL): 30 min; Kd [3]: 72.5 nM; cooperativity factor α = Kd binary/Kd ternary ([3]; upper limit): ≤ 0.2
